Measured values: paper PMC11016064, “One substrate many enzymes virtual screening uncovers missing genes of carnitine biosynthesis in human and mouse” (Nature Communications, 2024)
Like-named read-outs stand apart in the source and are kept apart here.

Tests used:
[1] = molecular target: T1, threonine aldolase (Tha1) (Mus musculus, UniProt Q6XPS7)
T1 sequence (Q6XPS7 41-400): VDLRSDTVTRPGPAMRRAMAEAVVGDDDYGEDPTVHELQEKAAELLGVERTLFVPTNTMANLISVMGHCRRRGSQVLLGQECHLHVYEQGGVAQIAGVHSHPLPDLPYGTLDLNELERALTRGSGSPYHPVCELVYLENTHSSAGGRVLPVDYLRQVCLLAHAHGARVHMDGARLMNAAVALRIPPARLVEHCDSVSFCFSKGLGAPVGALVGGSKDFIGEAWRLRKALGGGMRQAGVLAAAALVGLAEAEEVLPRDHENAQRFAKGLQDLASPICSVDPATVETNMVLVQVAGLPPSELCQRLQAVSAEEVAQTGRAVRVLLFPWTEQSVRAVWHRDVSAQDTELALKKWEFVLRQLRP

[2] = molecular target: T2, SHMT2 (Homo sapiens, UniProt P34897); design: Threonine cleavage coupled to alcohol dehydrogenase, NADH depletion at 340 nm, Michaelis-Menten fit; conditions: substrate
T2 sequence (P34897 30-504): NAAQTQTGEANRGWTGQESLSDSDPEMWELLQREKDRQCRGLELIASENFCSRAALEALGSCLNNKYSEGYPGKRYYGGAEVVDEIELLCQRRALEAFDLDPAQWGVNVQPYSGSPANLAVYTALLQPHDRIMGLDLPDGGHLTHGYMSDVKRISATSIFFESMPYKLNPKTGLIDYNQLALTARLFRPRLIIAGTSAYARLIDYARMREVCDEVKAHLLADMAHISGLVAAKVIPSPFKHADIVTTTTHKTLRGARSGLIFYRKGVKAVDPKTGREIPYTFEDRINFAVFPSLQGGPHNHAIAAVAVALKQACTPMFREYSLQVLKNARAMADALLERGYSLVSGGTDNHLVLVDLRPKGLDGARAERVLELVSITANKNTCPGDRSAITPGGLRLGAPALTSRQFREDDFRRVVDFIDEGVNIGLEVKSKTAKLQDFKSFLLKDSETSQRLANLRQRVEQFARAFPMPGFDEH
Experimental: (§1) The HTMLA activity was measured by coupling the aldol cleavage of HTML with the oxidation of TMABA by NAD^+ catalyzed by TMABADH. The rate of the reaction was calculated from the rate of appearance in absorbance at 340 nm, due to the formation of NADH, using a value of ε340 = 6220 cm^−1·M^−1. The reaction was carried out using 1 µM SHMT1 or 4 µM SHMT2 in 50 mM potassium phosphate, pH 7.5, containing 1 mM EDTA, 5 mM 2-mercaptoethanol, 0.5 mM NAD^+ and 8 µM TMABADH, at 37 °C. For Tha1 (1 µM) and eTA (0.1 µM) we kept the same conditions but a different temperature (30 °C) due to their low stability at 37 °C. The rate of L-allo-threonine and threonine cleavage was measured by coupling the reaction with reduction of the product acetaldehyde by NADH and alcohol dehydrogenase. With L-allo-threonine as substrate were reduced the amount of SHMT enzymes, 0.15 µM for SHMT1 and 1 µM for SHMT2.The rate of the reaction was calculated from the rate of disappearance in absorbance at 340 nm, due to NADH depletion.

[3] = molecular target: T3, SHMT1 (Homo sapiens, UniProt P34896); design: Threonine cleavage coupled to alcohol dehydrogenase, NADH depletion at 340 nm, Michaelis-Menten fit; conditions: substrate
T3 sequence (P34896 2-483): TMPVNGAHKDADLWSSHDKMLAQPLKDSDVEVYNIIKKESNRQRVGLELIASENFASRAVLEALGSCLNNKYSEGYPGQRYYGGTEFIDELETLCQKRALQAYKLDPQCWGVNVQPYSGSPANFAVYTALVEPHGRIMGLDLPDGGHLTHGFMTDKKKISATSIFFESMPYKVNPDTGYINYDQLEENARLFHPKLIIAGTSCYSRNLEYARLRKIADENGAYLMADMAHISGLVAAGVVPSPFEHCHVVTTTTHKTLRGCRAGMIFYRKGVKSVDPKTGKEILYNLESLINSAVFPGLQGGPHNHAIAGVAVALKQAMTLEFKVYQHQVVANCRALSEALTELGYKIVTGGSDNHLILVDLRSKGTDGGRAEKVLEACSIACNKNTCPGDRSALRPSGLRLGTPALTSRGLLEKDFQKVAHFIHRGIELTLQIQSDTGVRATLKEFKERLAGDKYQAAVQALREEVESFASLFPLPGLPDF
Experimental: as §1

[4] = molecular target: T2, SHMT2
[5] = molecular target: T3, SHMT1
[6] = molecular target: T1, threonine aldolase (Tha1); assay: X-ray crystal structure (monoclinic C2 form); format: binding; design: without the first 40 amino acids (predicted mitochondrial signal)
[7] = molecular target: T3, SHMT1; assay: TMABADH-coupled spectrophotometric aldolase assay (Km); 1H NMR; format: biochemical
[8] = molecular target: T4, low-specificity threonine aldolase eTA (Escherichia coli, UniProt P75823); assay: TMABADH-coupled spectrophotometric aldolase assay; format: biochemical
T4 construct: gene ltaE

[9] = molecular target: T2, SHMT2; assay: TMABADH-coupled spectrophotometric aldolase assay (Km); format: biochemical
[10] = molecular target: T5, KYAT1 (Homo sapiens, UniProt Q16773); assay: spectrophotometric kynurenine aminotransferase assay at […] nm, Lineweaver-Burk; format: biochemical
T5 sequence (Q16773 1-422): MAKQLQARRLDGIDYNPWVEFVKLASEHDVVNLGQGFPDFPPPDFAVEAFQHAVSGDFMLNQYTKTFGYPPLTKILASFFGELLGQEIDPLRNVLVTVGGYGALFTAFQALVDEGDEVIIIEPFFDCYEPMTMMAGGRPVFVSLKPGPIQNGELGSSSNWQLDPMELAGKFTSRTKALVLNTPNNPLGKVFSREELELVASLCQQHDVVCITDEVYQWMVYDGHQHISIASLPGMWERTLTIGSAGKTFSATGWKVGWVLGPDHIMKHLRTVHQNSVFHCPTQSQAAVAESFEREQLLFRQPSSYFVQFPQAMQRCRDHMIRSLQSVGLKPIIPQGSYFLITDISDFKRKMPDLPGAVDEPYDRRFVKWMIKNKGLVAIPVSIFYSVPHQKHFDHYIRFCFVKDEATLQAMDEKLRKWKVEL

[11] = substrate: C[C@H](O)[C@H](N)C(=O)O; assay: purified protein, by the assay type; design: Threonine cleavage coupled to alcohol dehydrogenase, NADH depletion at 340 nm, Michaelis-Menten fit; conditions: pH 7.5
Experimental: as §1

[12] = substrate: C[C@@H](O)[C@H](N)C(=O)O; assay: purified protein, by the assay type; design: Threonine cleavage coupled to alcohol dehydrogenase, NADH depletion at 340 nm, Michaelis-Menten fit; conditions: pH 7.5
Experimental: as §1

[13] = substrate: C[N+](C)(C)CCC[C@H](O)[C@H](N)C(=O)[O-]; assay: TMABADH-coupled spectrophotometric aldolase assay (Km); 1H NMR; format: biochemical, Mus musculus; conditions: PLP
[14] = molecular target: the molecule itself; assay: crystal structure; sitting drop at 18 °C, 0.2 M sodium nitrate, 0.1 M Bis-Tris propane pH 8.5, 20% w/v PEG 3350; space groups F222 (one molecule in the ASU) and C2 (two molecules in the ASU); tetramer formed by crystallographic symmetries

T4 sequence (P75823 whole entry): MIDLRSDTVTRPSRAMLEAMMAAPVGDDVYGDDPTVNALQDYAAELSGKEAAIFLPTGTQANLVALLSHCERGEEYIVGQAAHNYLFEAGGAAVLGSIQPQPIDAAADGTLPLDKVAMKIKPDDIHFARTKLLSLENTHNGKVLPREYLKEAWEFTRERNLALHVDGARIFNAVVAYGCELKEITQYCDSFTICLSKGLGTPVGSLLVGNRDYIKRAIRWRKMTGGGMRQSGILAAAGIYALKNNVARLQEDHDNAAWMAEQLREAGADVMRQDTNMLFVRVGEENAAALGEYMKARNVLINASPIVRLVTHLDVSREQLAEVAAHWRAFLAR

Molecule: C[C@@H](O)[C@H](N)C(=O)O [L-threonine]
- alcohol dehydrogenase-coupled spectrophotometric aldolase assay (kcat/Km) [1]: ~ 10^1 s^-1 M^-1
- Km [2]: 41.2 ± 3.43 mM
- Km [3]: 36.5 ± 2.48 mM

Molecule: C[C@H](O)[C@H](N)C(=O)O [L-allo-threonine]
- alcohol dehydrogenase-coupled spectrophotometric aldolase assay (kcat/Km) [4]: ~ 10^2 s^-1 M^-1
- alcohol dehydrogenase-coupled spectrophotometric aldolase assay (kcat/Km) [1]: ~ 10^2 s^-1 M^-1
- alcohol dehydrogenase-coupled spectrophotometric aldolase assay (kcat/Km) [5]: ~ 10^4 s^-1 M^-1
- Km [2]: 1.34 ± 0.115 mM
- Km [3]: 0.226 ± 0.017 mM

Molecule: Cc1ncc(COP(=O)(O)O)c(C=O)c1O [PLP]
- X-ray crystal structure (monoclinic C2 form) [6]: In Tha1, the PLP cofactor, bound to Lys242, is stabilized in the active site by a network of hydrogen bonds

Molecule: C[N+](C)(C)CCC[C@H](O)[C@H](N)C(=O)[O-] [HTML]
- Km [7]: 3.79 mM
- TMABADH-coupled spectrophotometric aldolase assay [8]: Characterization of its catalytic efficiency for L-allo-threonine and HTML, showed high activity with both substrates
- Km [9]: 0.8 mM
- Ki [10]: 4 mM

B1: threonine aldolase (Tha1) (Mus musculus) (protein)
chain: VDLRSDTVTRPGPAMRRAMAEAVVGDDDYGEDPTVHELQEKAAELLGVERTLFVPTNTMANLISVMGHCRRRGSQVLLGQECHLHVYEQGGVAQIAGVHSHPLPDLPYGTLDLNELERALTRGSGSPYHPVCELVYLENTHSSAGGRVLPVDYLRQVCLLAHAHGARVHMDGARLMNAAVALRIPPARLVEHCDSVSFCFSKGLGAPVGALVGGSKDFIGEAWRLRKALGGGMRQAGVLAAAALVGLAEAEEVLPRDHENAQRFAKGLQDLASPICSVDPATVETNMVLVQVAGLPPSELCQRLQAVSAEEVAQTGRAVRVLLFPWTEQSVRAVWHRDVSAQDTELALKKWEFVLRQLRP
notes: without the first 40 amino acids (predicted mitochondrial signal)
- Km [11]: 8.236 ± 0.86 mM
- kcat/Km [11]: 238 ± 26.2 M⁻¹ s⁻¹
- Km [12]: 37.531 ± 10.873 mM
- Km [13]: 0.169 mM

B2: mouse threonine aldolase (Tha1), truncated form without the first 40 amino acids (enzyme, UniProt Q6XPS7 41-400, looked up)
chain: VDLRSDTVTRPGPAMRRAMAEAVVGDDDYGEDPTVHELQEKAAELLGVERTLFVPTNTMANLISVMGHCRRRGSQVLLGQECHLHVYEQGGVAQIAGVHSHPLPDLPYGTLDLNELERALTRGSGSPYHPVCELVYLENTHSSAGGRVLPVDYLRQVCLLAHAHGARVHMDGARLMNAAVALRIPPARLVEHCDSVSFCFSKGLGAPVGALVGGSKDFIGEAWRLRKALGGGMRQAGVLAAAALVGLAEAEEVLPRDHENAQRFAKGLQDLASPICSVDPATVETNMVLVQVAGLPPSELCQRLQAVSAEEVAQTGRAVRVLLFPWTEQSVRAVWHRDVSAQDTELALKKWEFVLRQLRP
modifications: PLP cofactor bound to Lys242 (visible only in the monoclinic structure)
notes: Threonine aldolase Tha1, Mus musculus, CDS NM_027919.4 without the first 40 amino acids (predicted mitochondrial signal); The plasmid was bought from GenScript; also called Htmla; hydroxytrimethyllysine aldolase; source: E. coli BL21 with pGRO7 (GroEL/GroES co-expressed), purified (HisTrap, Superdex 200 size exclusion); not shown: His tag (from the vector pET-28b)
- stoichiometry N [14]: 4
